Experimental data as given in patent US20210338658A1, “MACROLIDE COMPOUNDS AND THEIR USE IN LIVER STAGE MALARIA AND RELATED DISEASE” (The Johns Hopkins University, priority 2014, published 2021).
“Also recorded” adds a separate entry of the source.

Tests used:
P. berghei sporozoites [1] = experiment: In vitro malaria liver stage assay (infected Hepa1-6 cells counted by anti-HSP70 immunofluorescence); format: cell-based, Plasmodium berghei; details: for reduction of parasite multiplication / growth in vitro: 10 μM
Experimental: 3A. […] Error is standard error of the mean of duplicate wells performed in biologic replicate. 3B. […] 50,000 Hepa1-6 cells were seeded in each well 24 hours prior to infection with 50,000 P. berghei sporozoites. The 2E6 anti-HSP70 antibody was used for immunofluorescent numeration of infected cells.
Drugs were purchased from either Sigma or Ambinter. In each chamber of 8-well LabTek tissue culture slides, 50,000 mouse hepatoma cells, Hepa1-6, were seeded one day before infection. Cells were normally cultured in DMEM supplemented with 10% FBS, 1× L-glutamine and 1× Pen-Strep at 37° C. and 5% CO2. Once incubated with P. berghei sporozoites, the culture medium supplement was changed to 2.5% FBS, 1× L-glutamine and 2× Pen-Strep. Before treatment with drugs, the cells were washed four times with DMEM containing 10× Pen-Strep and 5 ug/mL fungicide. After 24 hours, fresh culture medium containing drugs was added to each chamber. Approximately 42 hours post-infection, the growth medium was removed and 100% cold methanol was added for 15 minutes to fix the cells. After washing with sterile PBS, cells were incubated in PBS with 5% FBS for blocking. Then 2E6 anti-HSP70 antibody was diluted to 10 μg/mL in PBS with 5% FBS and added in a 200 μL volume to cells. One hour later, cells were washed with PBS and incubated with 10 μg/mL Alexafour 594 anti-mouse secondary antibody. In order to visualize hepatocytes, nuclear counterstain DAPI was incubated with cells for 5 minutes and then washed off. The plastic chambers and silicone gasket were removed and slide was fully dried before mounted and sealed with cover slides. When preparation was complete, slide was taken to the fluorescence microscope for examination. Representative areas were randomly selected from each chamber and the numbers of infected cells were counted for a similar number of microscopic fields. The level of inhibition was determined by comparing the average of each chamber containing treated cells with that of the controls.
Five compounds were procured while cethromycin was synthesized. Cethromycin was directly synthesized from erythromycin by substituting the cladinose sugar at C3 with a keto-group, attaching a cyclic carbamate group at C11-C12, and tethering the quinoline moiety to the C6 alcohol. We used the in vitro P. berghei ANKA model on mouse hepatoma cells, Hepa1-6. […] Quinoline, erythromycin and their combination were also tested to investigate the role the quinoline plays in the antimalarial activity of cethromycin. […] Due to limited synthesized amounts of cethromycin, only one dose was given to mice while other drugs and compounds were administered twice.

P. berghei sporozoites [2] = experiment: In vivo liver stage assay (mouse liver parasite load by real-time PCR); details: for effect on parasite growth in mice (in words): dose not given; for inhibitory effect on parasite proliferation in mice (in words): two doses 24 hours apart; for side effects in the mice: after two doses
Experimental: Approximately 10,000 sporozoites were inoculated by tail vein injection and mice were sacrificed 40 hours later, livers were harvested, placed in RNAzol and parasite levels determined by realtime PCR from cDNA from reverse transcription. Relative fluorescent units were compared to control to determine percent inhibition. Cethromycin (CET) was administered only once while the other drugs were given twice 24 hours apart from each dose. […] Error is standard error of mean of three mice with real time PCR performed in duplicate for transcript levels in each mouse.
Mice were kept in Johns Hopkins Bloomberg School of Public Health mouse facility according to the ACUC animal protocol number MO09H401. Six week old C57BL/6 mice weighing about 20-22 g were divided into groups of three. 12,000 P. berghei sporozoites in a 200 μL volume were injected into mice through tail veins. Two hours after injection, different dilutions of drugs in 100-200 μL volumes were delivered to mice by oral gavage using a plastic feeding tube. A second dose of drugs was given 24 hours after the first one to the mice that were on a daily dosing regimen. Approximately 40 hours post-infection, mice infected with P. berghei sporozoites were anesthetized by inhaling Metofane® and sacrificed for harvesting whole livers. Each mouse liver was immediately put into 10 mL of Trizol® Reagent and fully homogenized. After RNA isolation, the RNA was diluted to 100 ng/mL for reverse-transcription reactions. For a 30 μL reaction, the components were set up as: 3.5 μL of nuclease-free water, 3 μL of 10× Buffer II and 10 mM dNTPs, 6 μL of MgCl2 solution, 1.5 μL of 50 μM Random Hexamers, RNase Inhibitor and MuLV Reverse Transcriptase, 10 μL of RNA sample. cDNA products were stored at −20° C. For a 10 μL real-time quantitative PCR, the components were set up as: 0.2 μL of 10 μM forward and reverse primer 18s P. berghei, 5 μL of 2×SYBR Green PCR Master Mix, 1.6 μL of nuclease-free water, and 3 μL of cDNA sample. All test subjects were done in duplicates including positive and negative controls. When real-time PCR was finished, all data were baselined and normalized to the housekeeping gene before further analysis. The specific sequences of primers (The Core DNA Analysis Facility—JHU, Baltimore, Md.) were: 5′-[…]-3′ (SEQ ID NO: 1) and 5′-[…]-3′(SEQ ID NO: 2) for P. berghei ANKA 18s and 5′-[…]1TAGC-3′ (SEQ ID NO: 3) and 5′-[…]-3′ (SEQ ID NO: 4) for mouse HPRT.

[3] = over 5,000 humans, single day dosing; cited from earlier work
Plasmodium = details: reference molecules of the training set; read-out: liver stage inhibition; cited from earlier work

| Structure (SMILES) | parasite inhibition in vitro (in words) (P. berghei sporozoites [1]; Hepa1-6 cells) | effect on parasite growth in mice (in words) (P. berghei sporozoites [2]; oral gavage) | inhibitory effect on parasite proliferation in mice (in words) (P. berghei sporozoites [2]; 50 mg/kg) | side effects in the mice (P. berghei sporozoites [2]; 50 mg/kg) | also measured |
| --- | --- | --- | --- | --- | --- |
| CC[C@H]1OC(=O)[C@H](C)C(=O)[C@H](C)[C@@H](O[C@@H]2O[C@H](C)C[C@H](N(C)C)[C@H]2O)[C@@](C)(OC/C=C/c2cnc3ccccc3c2)C[C@@H](C)C(=O)[C@H](C)[C@H]2NC(=O)O[C@@]21C [Cethromycin, (1R,2R,4R,6S,7R,8R,10R,13R,14S)-7-[(2S,3R,4S,6R)-4-(dimethylamino)-3-hydroxy-6-methyloxan-2-yl]oxy-13-ethyl-2,4,6,8,10,14-hexamethyl-6-[(E)-3-quinolin-3-ylprop-2-enoxy]-12,15-dioxa-17-azabicyclo[12.3.0]heptadecane-3,9,11,16-tetrone] | measurable inhibitory effect; also recorded: active | active |  |  | inhibition of liver stage malaria in vitro (reduction of parasite growth) (P. berghei sporozoites [1]; 20 μM, Hepa1-6 cells): 54%; inhibition at 20 µM (P. berghei sporozoites [1]; Plasmodium berghei, Hepa1-6, 20 μM, Hepa1-6 cells, read-out: inhibition of liver stage malaria in vitro (reduction of parasite growth)): 52%; inhibition of liver parasites in mice (P. berghei sporozoites [2]; 12 mg/kg, oral gavage): about 16%; reduction of parasite load in mouse liver (P. berghei sporozoites [2]; 50 mg/kg, oral gavage, one dose, liver 40 hours post-infection): 60%; effect on parasite load in mice (in words) (P. berghei sporozoites [2]; cethromycin 12 mg/kg): only partially effective; safety in humans [3]: used safely |
| O=C(COC(=O)c1cccnc1SCC(=O)Nc1cc(S(=O)(=O)N2CCOCC2)ccc1Cl)Nc1cc(S(=O)(=O)N2CCOCC2)ccc1Cl [T0507-9950, [2-(2-chloro-5-morpholin-4-ylsulfonylanilino)-2-oxoethyl] 2-[2-(2-chloro-5-morpholin-4-ylsulfonylanilino)-2-oxoethyl]sulfanylpyridine-3-carboxylate] | measurable inhibitory effect |  | significant inhibitory effect | without causing any notable side effects |  |
| O=C(/C=C/c1ccc(Cl)cc1Cl)Nc1cc(S(=O)(=O)N2CCCCC2)ccc1Cl [T0510-7064, (E)-N-(2-chloro-5-piperidin-1-ylsulfonylphenyl)-3-(2,4-dichlorophenyl)prop-2-enamide] | measurable inhibitory effect |  | significant inhibitory effect | without causing any notable side effects | reduction of parasite multiplication / growth in vitro (P. berghei sporozoites [1]; Hepa1-6 cells): 54% |
| CCN(CC)S(=O)(=O)c1cccc(-c2nnc(SC(C)C(=O)Nc3ccc(C)c(S(=O)(=O)N(CC)CC)c3)n2Cc2ccccc2)c1 (stereo not drawn) [T5531873, 2-[[4-benzyl-5-[3-(diethylsulfamoyl)phenyl]-1,2,4-triazol-3-yl]sulfanyl]-N-[3-(diethylsulfamoyl)-4-methylphenyl]propanamide] | measurable inhibitory effect |  | significant inhibitory effect | without causing any notable side effects | reduction of parasite multiplication / growth in vitro (P. berghei sporozoites [1]; Hepa1-6 cells): over 95%; inhibition of liver stage malaria in vitro (P. berghei sporozoites [1]; FIG. 3, concentration not given): ~95% |
| CC[C@H]1OC(=O)[C@H](C)[C@@H](O[C@H]2C[C@@](C)(OC)[C@@H](O)[C@H](C)O2)[C@H](C)[C@@H](O[C@@H]2O[C@H](C)C[C@H](N(C)C)[C@H]2O)[C@](C)(O)C[C@@H](C)C(=O)[C@H](C)[C@@H](O)[C@]1(C)O [erythromycin] | Neither quinoline, nor erythromycin, nor their combination showed any parasite inhibition; also recorded: inactive; also recorded: no activity | only marginal inhibitory effect; also recorded: no activity |  |  |  |
| CC[C@@]1([C@@H]2O[C@@H]([C@H]3O[C@@](O)(CO)[C@H](C)C[C@@H]3C)C[C@@H]2C)CC[C@H]([C@]2(C)CC[C@]3(C[C@H](O)[C@@H](C)[C@@H]([C@@H](C)[C@@H](OC)[C@H](C)C(=O)O)O3)O2)O1 [monensin] |  |  |  |  | IC50 (Plasmodium): 1 pM |
| COc1cc(NC(C)CCCN)c2ncccc2c1 (stereo not drawn) [primaquine] |  |  |  |  | inhibition of liver parasites in mice (P. berghei sporozoites [2]; primaquine 15 mg/kg, oral gavage): 83% |
| c1ccc2ncccc2c1 [quinoline] | Neither quinoline, nor erythromycin, nor their combination showed any parasite inhibition; also recorded: inactive; also recorded: no activity | only marginal inhibitory effect; also recorded: no activity |  |  | effect on parasite growth in mice (in words) (P. berghei sporozoites [2]; oral gavage, listed as quinolone): only marginal effect |
